Consider three molecules from ChEMBL document CHEMBL3576782, “Bacillusin A, an Antibacterial Macrodiolide from Bacillus amyloliquefaciens AP183” (J Nat Prod, 2015).

In brackets after ≈: the same amount, converted by molar mass. Activity calls are given as the source filed them.

Data set [1] concerns Staphylococcus aureus. In words: Bactericidal activity against Staphylococcus aureus ATCC 29213 using fresh sample in DMSO after 24 to 48 hrs by CLSI method. It is filed as functional.
The subject of data set [2] is Staphylococcus aureus. In words: Antibacterial activity against methicillin-resistant Staphylococcus aureus ATCC 33591 assessed as growth inhibition using fresh sample in DMSO by CLSI method. The data set is classed as functional, organism-based.
The subject of data set [3] is Staphylococcus aureus. Kind of data set: Bactericidal activity against methicillin-resistant Staphylococcus aureus ATCC 33591 using fresh sample in DMSO after 24 to 48 hrs by CLSI method. It is filed as functional.
In data set [4] the test system is Staphylococcus aureus. Kind of data set: Antibacterial activity against methicillin-resistant Staphylococcus aureus EAMC30 assessed as growth inhibition using fresh sample in DMSO by CLSI method. The data set is classed as functional, organism-based.
In data set [5] the test system is Staphylococcus aureus. In words: Bactericidal activity against methicillin-resistant Staphylococcus aureus EAMC30 using fresh sample in DMSO after 24 to 48 hrs by CLSI method. It is filed as functional.
The test system of data set [6] is Enterococcus faecalis. Kind of data set: Antibacterial activity against Enterococcus faecalis ATCC 29212 assessed as growth inhibition using fresh sample in DMSO by CLSI method. The data set is classed as functional, organism-based.
The subject of data set [7] is Enterococcus faecalis. Kind of data set: Bactericidal activity against Enterococcus faecalis ATCC 29212 using fresh sample in DMSO after 24 to 48 hrs by CLSI method. The data set is classed as functional.
Data set [8] deals with Enterococcus faecium. Kind of data set: Antibacterial activity against vancomycin-resistant Enterococcus faecium ATCC 700221 assessed as growth inhibition using fresh sample in DMSO by CLSI method. The data set is classed as functional, organism-based.
The test system of data set [9] is Enterococcus faecalis. Kind of data set: Antibacterial activity against Enterococcus faecalis ATCC 51299 assessed as growth inhibition using fresh sample in DMSO by CLSI method. It is filed as functional, organism-based.
Data set [10] has as its system Enterococcus faecalis. In words: Bactericidal activity against Enterococcus faecalis ATCC 51299 using fresh sample in DMSO after 24 to 48 hrs by CLSI method. The data set is classed as functional.
The subject of data set [11] is Enterococcus faecium. In words: Bactericidal activity against vancomycin-resistant Enterococcus faecium ATCC 700221 using fresh sample in DMSO at 20 ug/ml after 24 to 48 hrs by CLSI method. It is filed as functional, organism-based.
A further data set concerns Candida albicans. Kind of data set: Antifungal activity against Candida albicans ATCC 90028 at 20 ug/ml by CLSI method. The data set is classed as functional, organism-based.
A short description of data set [12]: Chemical stability in acetonitrile after 1 week by LC-MS analysis. The conditions noted are these: 168 h. It is filed as physicochemical.
The subject of data set [13] is Staphylococcus aureus. Kind of data set: Antibacterial activity against Staphylococcus aureus ATCC 29213 assessed as growth inhibition using fresh sample in DMSO by CLSI method. The data set is classed as functional, organism-based.
Data set [14] deals with Enterococcus faecalis. In words: Bactericidal activity against Enterococcus faecalis ATCC 51299 using fresh sample in DMSO at 100 ug/ml after 24 to 48 hrs by CLSI method. It is filed as functional, organism-based.
For data set [15], the system named is Staphylococcus aureus. In words: Antibacterial activity against methicillin-resistant Staphylococcus aureus ATCC 33591 assessed as growth inhibition using fresh sample in DMSO at 100 ug/ml by CLSI method. The data set is classed as functional, organism-based.
Data set [16] has as its system Staphylococcus aureus. Kind of data set: Bactericidal activity against methicillin-resistant Staphylococcus aureus ATCC 33591 using fresh sample in DMSO at 100 ug/ml after 24 to 48 hrs by CLSI method. The data set is classed as functional, organism-based.

As a reminder, the MBC is the lowest tested concentration that kills the bacteria rather than only halting them. Low values mean more potent killing, high ones less potent killing. The term IC50 denotes the concentration that inhibits the measured activity by half. For orientation: MIC means the smallest concentration in the dilution series that meets the test's criterion for growth inhibition. With `COc1cc(O)cc2c1C(=O)OC(CC(C)O)CC(O)C/C=C/C(O)CC(O)CC(O)C/C(C)=C/C=C/C=C/C=C/C=C/c1cc(O)cc(OC)c1C(=O)OC(CC(C)O)CC(O)C/C=C/C(O)CC(O)CC(O)C/C(C)=C/C=C/C=C/C=C/C=C/2` (configuration not stated), the MBC in the data set on Staphylococcus aureus [1] was 2.5 µg/mL (≈ 2.09 µM); against Staphylococcus aureus [3], 1.2 µg/mL (≈ 1 µM); in the data set with Staphylococcus aureus [5], 0.6 µg/mL (≈ 0.501 µM); against Enterococcus faecalis [7], 2.5 µg/mL (≈ 2.09 µM); with Enterococcus faecalis [10], 1.2 µg/mL (≈ 1 µM). The IC50 was 0.04 µg/mL (≈ 0.0334 µM) with Staphylococcus aureus [2]; less than 0.02 µg/mL in the data set on Staphylococcus aureus [4]; 0.2 µg/mL (≈ 0.167 µM) with Enterococcus faecalis [6]; 0.1 µg/mL (≈ 0.0835 µM) with Enterococcus faecium [8]; 0.2 µg/mL (≈ 0.167 µM) in the data set on Enterococcus faecalis [9]; 0.04 µg/mL (≈ 0.0334 µM) with Staphylococcus aureus [13]. Moreover, the minimal inhibitory concentration (MIC) stood at 1.2 µg/mL (≈ 1 µM) in the data set with Staphylococcus aureus [2]; 0.6 µg/mL (≈ 0.501 µM) in the data set with Staphylococcus aureus [4]; 0.6 µg/mL (≈ 0.501 µM) with Enterococcus faecalis [6]; 0.6 µg/mL (≈ 0.501 µM) in the data set with Enterococcus faecium [8]; 0.6 µg/mL (≈ 0.501 µM) with Enterococcus faecalis [9]; 1.2 µg/mL (≈ 1 µM) with Staphylococcus aureus [13]. Moreover, the result in the data set with Enterococcus faecium [11] and in the data set on Candida albicans was inactive. In addition, the Stability entry in data set [12] was “Unstable”.

As to `CN[C@H](CC(C)C)C(=O)N[C@H]1C(=O)N[C@@H](CC(N)=O)C(=O)N[C@H]2C(=O)N[C@H]3C(=O)N[C@H](C(=O)N[C@H](C(=O)O)c4cc(O)cc(O)c4-c4cc3ccc4O)[C@H](O)c3ccc(c(Cl)c3)Oc3cc2cc(c3O[C@@H]2O[C@H](CO)[C@@H](O)[C@H](O)[C@H]2O[C@H]2C[C@](C)(N)[C@H](O)[C@H](C)O2)Oc2ccc(cc2Cl)[C@H]1O` [VANCOMYCIN], the MBC was 50 µg/mL (≈ 34.5 µM) in the data set with Staphylococcus aureus [1], 1.6 µg/mL (≈ 1.1 µM) in the data set with Staphylococcus aureus [3], 0.4 µg/mL (≈ 0.276 µM) against Staphylococcus aureus [5] and 50 µg/mL (≈ 34.5 µM) in the data set with Enterococcus faecalis [7]. For the same molecule, the IC50 in the data set on Staphylococcus aureus [2] was 0.8 µg/mL (≈ 0.552 µM); in the data set on Staphylococcus aureus [4], 0.2 µg/mL (≈ 0.138 µM); in the data set with Enterococcus faecalis [6], 1 µg/mL (≈ 0.69 µM); with Enterococcus faecalis [9] it was 3.4 µg/mL (≈ 2.35 µM); in the data set with Staphylococcus aureus [13] it was 0.7 µg/mL (≈ 0.483 µM). The MIC in the data set with Staphylococcus aureus [2] came to 1.6 µg/mL (≈ 1.1 µM); with Staphylococcus aureus [4], 0.4 µg/mL (≈ 0.276 µM); with Enterococcus faecalis [6], 1.6 µg/mL (≈ 1.1 µM); with Enterococcus faecalis [9] it was 6.2 µg/mL (≈ 4.28 µM); with Staphylococcus aureus [13] it was 1.6 µg/mL (≈ 1.1 µM). Moreover, the outcome with Enterococcus faecalis [14] was inactive.

As to `COc1cccc(OC)c1C(=O)N[C@@H]1C(=O)N2[C@@H]1SC(C)(C)[C@@H]2C(=O)O` [METHICILLIN], the results for the MBC against Staphylococcus aureus [1], against Enterococcus faecalis [7] and against Enterococcus faecalis [10] were 12.5 µg/mL (≈ 32.9 µM), 50 µg/mL (≈ 131 µM) and 50 µg/mL (≈ 131 µM), respectively. The IC50 with Staphylococcus aureus [4] came to 10.1 µg/mL (≈ 26.5 µM); with Enterococcus faecalis [6] it was 15.3 µg/mL (≈ 40.2 µM); in the data set with Enterococcus faecalis [9], 14.2 µg/mL (≈ 37.3 µM). Further, the MIC is 50 µg/mL (≈ 131 µM) in the data set on Staphylococcus aureus [4], 25 µg/mL (≈ 65.7 µM) with Enterococcus faecalis [6], 50 µg/mL (≈ 131 µM) in the data set with Enterococcus faecalis [9] and 3.1 µg/mL (≈ 8.15 µM) in the data set with Staphylococcus aureus [13]. Moreover, the “growth inhibition (GI)” value with Staphylococcus aureus [15] is “inactive”. Also, the result in the data set with Staphylococcus aureus [16] was inactive.
